Data reported in ChEMBL document CHEMBL1201862, “PubChem BioAssay data set” (2004).
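In this assay, cells in 96-well plates receive the compound at five concentrations for 48 hours. Endpoints are linearly interpolated between the surrounding concentrations. At the GI50, growth is halved.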 Active and inactive are the calls of the source. No stated cut-off is given here; in the data, active = GI50 up to about 1.1 µM and inactive = higher. Starred links: 1 amine or outer side, 2 acyl side, 3 side chain; linkers in the order of their positions; H or OH if unused. Non-standard residues stand in square brackets, D forms with d. Residues, ends and D or L forms follow the SMILES beside them. X4 = C[C@H](N[*:1])C(=O)C(C)(C)C(=O)[*:2]; Hmpa(2S,3S) = CC[C@H](C)[C@H](O)C(=O)O; NMeY = CN[C@@H](Cc1ccc(O)cc1)C(=O)O; NMeL = CN[C@@H](CC(C)C)C(=O)O; NMeV = CN[C@H](C(=O)O)C(C)C; βAla = NCCC(=O)O

Columns and labels:
Assay in all cases: NCI anticancer screen, dose series, 48 h
[1] = test system: CAKI-1
[2] = test system: MOLT-4
[3] = test system: CCRF-CEM
[4] = test system: RXF 393
[5] = test system: HOP-62
[6] = test system: TK-10
[7] = test system: COLO 205
[8] = test system: SF-268
[9] = test system: SK-MEL-2
[10] = test system: M14
[11] = test system: OVCAR-5
[12] = test system: OVCAR-4
[13] = test system: A498
[14] = test system: SR
[15] = test system: ACHN
[16] = test system: DU-145
[17] = test system: IGROV-1
[18] = test system: HCT-116
[19] = test system: Malme-3M
[20] = test system: HCC 2998

SMILES | GI50 [1] | GI50 [2] | GI50 [3] | GI50 [4] | GI50 [5] | GI50 [6] | GI50 [7] | GI50 [8] | GI50 [9] | GI50 [10] | GI50 [11] | GI50 [12] | GI50 [13] | GI50 [14] | GI50 [15] | GI50 [16] | GI50 [17] | GI50 [18] | GI50 [19] | GI50 [20]
[N-]=[N+]=Nc1ccccc1C(=O)N1C(=O)c2ccccc2C(=O)N(C(=O)c2ccccc2N=[N+]=[N-])c2ccccc21 | 59 µM (inactive) | 13.9 µM (inactive) | 11.1 µM (inactive) | 27.4 µM (inactive) | 21.6 µM (inactive) | 67.5 µM (inactive) | 34.1 µM (inactive) | 71 µM (inactive) | 37.9 µM (inactive) | > 100 µM (inactive) | > 100 µM (inactive) | > 100 µM (inactive) | 42.2 µM (inactive) | 38.8 µM (inactive) | 45.1 µM (inactive) | > 100 µM (inactive) | 46.9 µM (inactive) | 35 µM (inactive) | > 100 µM (inactive) | > 100 µM (inactive)
[N-]=[N+]=CC(=O)OC1Cc2ccccc2C1 | 1 µM (active) | > 100 µM (inactive) | > 31.6 µM (inactive) | > 42.6 µM (inactive) | > 66.8 µM (inactive) | 97.3 µM (inactive) | > 72.6 µM (inactive) | > 100 µM (inactive) | > 100 µM (inactive) | > 100 µM (inactive) | 73.1 µM (inactive) | > 100 µM (inactive) | > 100 µM (inactive) | > 100 µM (inactive) | 27.7 µM (inactive) | 21.1 µM (inactive) | > 100 µM (inactive) | > 100 µM (inactive) | > 100 µM (inactive) | > 100 µM (inactive)
CC[C@H](C)[C@@H]1OC(=O)CCNC(=O)[C@@H](C)NC(=O)C(C)(C)C(=O)[C@H](C)NC(=O)[C@H](Cc2ccc(OC)cc2)N(C)C(=O)[C@H](C(C)C)N(C)C(=O)CNC(=O)[C@H](CC(C)C)N(C)C(=O)CNC1=O (cyclo(G[NMeL]G[NMeV][NMeY](Me)[X4][dA][βAla][Hmpa(2S,3S)])) | 1.53 µM (inactive) | 2.4 µM (inactive) | 0.0568 µM (active) | 0.733 µM (active) | 0.962 µM (active) | 1.67 µM (inactive) | 0.0252 µM (active) | 0.254 µM (active) | 0.222 µM (active) | 0.885 µM (active) | 0.724 µM (active) | 0.284 µM (active) | 1.38 µM (inactive) | 0.337 µM (active) | 3.1 µM (inactive) | 2.71 µM (inactive) | 0.697 µM (active) | 0.0352 µM (active) | 0.217 µM (active) | 0.0715 µM (active)
